The text below walks through data of US9062041B2 (Bayer Intellectual Property GmbH, priority 2011, dated 2015).

Format in all cases: cell-based
Assay [1] deals with EP2 subtype of the human PGE2 receptor (Homo sapiens, UniProt P43116). As to the kind of experiment: cAMP antagonism test on the human EP2 receptor (HTRF cAMP detection). The settings on record: hEP2 receptor, read-out: Antagonism hEP2 IC50. In short, it runs like this: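 Cells expressing human EP2 preincubated 20 min at RT with compound (0.8 nM–16.5 μM), then stimulated 60 min with PGE2 (3× solution 1.5 nM) in PBS-IBMX. After 20 min lysis, cAMP measured by competitive HTRF with cAMP-d2 and Eu cryptate anti-cAMP antibody (665/620 nm ratio).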
Chain of EP2 subtype of the human PGE2 receptor (P43116 whole entry): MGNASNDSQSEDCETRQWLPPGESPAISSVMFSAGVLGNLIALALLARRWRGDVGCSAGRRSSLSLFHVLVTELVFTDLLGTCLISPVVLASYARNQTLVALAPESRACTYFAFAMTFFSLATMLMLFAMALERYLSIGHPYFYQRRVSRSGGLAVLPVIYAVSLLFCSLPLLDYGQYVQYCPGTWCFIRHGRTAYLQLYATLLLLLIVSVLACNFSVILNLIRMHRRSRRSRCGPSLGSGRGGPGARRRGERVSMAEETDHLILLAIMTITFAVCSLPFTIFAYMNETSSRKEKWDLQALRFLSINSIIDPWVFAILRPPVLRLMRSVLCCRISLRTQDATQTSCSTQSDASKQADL
Background: TR-FRET usually uses a lanthanide donor and a delayed reading to cut background.

The target of assay [2] is EP4 subtype of the human PGE2 receptor (Homo sapiens, UniProt P35408). As to the kind of experiment: cAMP antagonism test on the human EP4 receptor (HTRF cAMP detection). As to conditions: selectivity towards hEP4, IC50 measured by cAMP antagonism test. Put shortly: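 Cells expressing human EP4 preincubated 20 min at RT with compound (0.8 nM–16.5 μM), then stimulated with PGE2 (0.3 nM in 3× solution, with IBMX) 60 min at RT. After lysis, cAMP measured by HTRF competition (665/620 nm ratio); antagonism seen as rise in FRET signal.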
Chain of EP4 subtype of the human PGE2 receptor (P35408 whole entry): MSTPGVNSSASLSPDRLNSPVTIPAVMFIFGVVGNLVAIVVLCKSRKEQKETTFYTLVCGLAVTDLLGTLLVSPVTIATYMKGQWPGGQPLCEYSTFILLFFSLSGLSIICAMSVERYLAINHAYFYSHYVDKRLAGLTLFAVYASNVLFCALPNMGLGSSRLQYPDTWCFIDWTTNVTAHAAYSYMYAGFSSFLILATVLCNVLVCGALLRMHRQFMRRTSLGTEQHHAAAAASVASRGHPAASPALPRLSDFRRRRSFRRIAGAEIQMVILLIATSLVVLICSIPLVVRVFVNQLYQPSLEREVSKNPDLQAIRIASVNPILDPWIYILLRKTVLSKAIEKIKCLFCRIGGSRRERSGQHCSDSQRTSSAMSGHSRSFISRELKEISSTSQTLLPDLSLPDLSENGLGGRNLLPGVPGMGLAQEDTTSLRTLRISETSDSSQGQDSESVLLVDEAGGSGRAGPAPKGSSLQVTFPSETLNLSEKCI

Assay [3] has as its target T1, human PGD receptor (Homo sapiens, UniProt Q13258).
T1 sequence (Q13258 1-359): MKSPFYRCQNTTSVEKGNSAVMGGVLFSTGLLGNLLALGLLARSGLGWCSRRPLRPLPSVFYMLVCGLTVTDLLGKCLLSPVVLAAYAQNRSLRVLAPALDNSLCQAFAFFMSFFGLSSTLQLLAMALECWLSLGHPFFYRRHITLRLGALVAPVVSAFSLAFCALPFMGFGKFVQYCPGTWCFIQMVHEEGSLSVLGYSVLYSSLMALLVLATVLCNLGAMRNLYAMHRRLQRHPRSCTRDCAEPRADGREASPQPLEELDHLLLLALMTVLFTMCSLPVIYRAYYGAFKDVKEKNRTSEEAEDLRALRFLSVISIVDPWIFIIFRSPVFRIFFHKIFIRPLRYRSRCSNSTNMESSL
As to the kind of experiment: cAMP antagonism test on the human prostaglandin D receptor (HTRF cAMP detection). The settings on record: selectivity towards hDP, IC50 measured by cAMP antagonism test. Put shortly:
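Cells pre-mixed with cAMP-d2 were preincubated with compound (0.8 nM–16.5 μM) for 20 min at RT, then stimulated with 3× PGD2 solution (6 nM, in PBS-IBMX) for 30 min at RT. After lysis (20 min), HTRF read at 665/620 nm; antagonism seen as rise in FRET ratio.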

Regarding `COCCNC(=O)c1ccc2nn(CC3CCN(C(=O)c4ccc(-c5ccc(C)cc5)cc4F)CC3)cc2c1C` [Example 44, 2-({1-[(3-fluoro-4′-methylbiphenyl-4-yl)carbonyl]piperidin-4-yl}methyl)-N-(2-methoxyethyl)-4-methyl-2H-indazol-5-carboxamide], the IC50 in assay [1] is 3.85 nM. Besides, the “Selectivity hEP2/hEP4” value in assay [2] was “xxx (xxx > 100)”. In addition, in assay [3], the “Selectivity hEP2/hDP” value was “xxx (xxx > 100)”.

Turning to `Cc1c(C(=O)NCC(F)(F)F)ccc2nn(CC3CCN(C(=O)c4ccc(SC(F)(F)F)cc4)CC3)cc12` [Example 288, 4-methyl-N-(2,2,2-trifluoroethyl)-2-[(1-{4-[(trifluoromethyl)sulphanyl]benzoyl}-piperidin-4-yl)methyl]-2H-indazol-5-carboxamide], the IC50 in assay [1] amounted to 40 nM. Besides, in assay [2], the “Selectivity hEP2/hEP4” value is listed as “xxx (xxx > 100)”. Besides, the “Selectivity hEP2/hDP” value in assay [3] is reported as “xxx (xxx > 100)”.

Consider `Cc1c(C(=O)NCC2CCCCO2)ccc2nn(CC3CCN(C(=O)c4ccc(Cl)cc4)CC3)cc12` (single isomer, unassigned) [Example 240, (R or S)-2-{[1-(4-chlorobenzoyl)piperidin-4-yl]methyl}-4-methyl-N-(3,4,5,6-tetrahydro-2H-pyran-2-ylmethyl)-2H-indazol-5-carboxamide], for which, in assay [1], the IC50 came out at 25.1 nM. Further, the “Selectivity hEP2/hEP4” value in assay [2] is given as “xxx (xxx > 100)”. Moreover, the “Selectivity hEP2/hDP” value in assay [3] is listed as “xxx (xxx > 100)”.

For the molecule `CCOCCNC(=O)c1ccc2nn(CC3CN(C(=O)c4ccc(Cl)cc4)C3)cc2c1OC` [Example 259, 2-{[1-(4-chlorobenzoyl)azetidin-3-yl]methyl}-N-(2-ethoxyethyl)-4-methoxy-2H-indazol-5-carboxamide], the IC50 in assay [1] turned out to be 25.6 nM. Also, the “Selectivity hEP2/hEP4” value in assay [2] is listed as “xxx (xxx > 100)”. Further, the “Selectivity hEP2/hDP” value in assay [3] was “xxx (xxx > 100)”.

Take `COCCNC(=O)c1ccc2nn(CC3CCN(C(=O)c4ccc(-c5cccc(OC)n5)cc4)CC3)cc2c1C` [Example 378, N-(2-methoxyethyl)-2-({1-[4-(6-methoxypyridin-2-yl)benzoyl]piperidin-4-yl}methyl)-4-methyl-2H-indazol-5-carboxamide]: the IC50 in assay [1] worked out at 7.77 nM. The “Selectivity hEP2/hEP4” value in assay [2] was “xxx (xxx > 100)”. Further, the “Selectivity hEP2/hDP” value in assay [3] was “xxx (xxx > 100)”.

As to `COC(C)CNC(=O)c1cc2cn(CC3CN(C(=O)c4ccc(Cl)cc4)C3)nc2cc1C` (racemic) [Example 192, (+/−)-2-{[1-(4-chlorobenzoyl)azetidin-3-yl]methyl}-N-(2-methoxypropyl)-6-methyl-2H-indazol-5-carboxamide], in assay [1], the IC50 amounted to 206 nM. In assay [2], the “Selectivity hEP2/hEP4” value is on record as “xx (xx: 10-100)”. For the same molecule, the “Selectivity hEP2/hDP” value in assay [3] is “xx (xx: 10-100)”.

`COCCNC(=O)c1ccc2nn(CC3CCN(C(=O)c4ccc5cc(OC)ccc5c4)CC3)cc2c1C` [Example 336, N-(2-methoxyethyl)-2-{[1-(6-methoxy-2-naphthoyl)piperidin-4-yl]methyl}-4-methyl-2H-indazol-5-carboxamide]: the IC50 in assay [1] came out at 5.59 nM. For the same molecule, in assay [2], the “Selectivity hEP2/hEP4” value is given as “xxx (xxx > 100)”. In assay [3], the “Selectivity hEP2/hDP” value is listed as “xxx (xxx > 100)”.

For the molecule `COCCNC(=O)c1ccc2nn(CC3CCN(C(=O)c4ccc(-c5ccccc5)c(C)c4)CC3)cc2c1C` [Example 394, N-(2-methoxyethyl)-4-methyl-2-({1-[(2-methylbiphenyl-4-yl)carbonyl]piperidin-4-yl}methyl)-2H-indazol-5-carboxamide], in assay [1], the IC50 turned out to be 5.7 nM. In addition, the “Selectivity hEP2/hEP4” value in assay [2] is “xxx (xxx > 100)”. Moreover, the “Selectivity hEP2/hDP” value in assay [3] is given as “xxx (xxx > 100)”.

As to `COCCNC(=O)c1ccc2nn(CC3CN(C(=O)c4ccc5ccc(OC)cc5c4)C3)cc2c1C` [Example 175, N-(2-methoxyethyl)-2-{[1-(7-methoxy-2-naphthoyl)azetidin-3-yl]methyl}-4-methyl-2H-indazol-5-carboxamide], in assay [1], the half-inhibitory concentration (IC50) came to 8.05 nM. Moreover, the “Selectivity hEP2/hEP4” value in assay [2] is recorded as “xxx (xxx > 100)”. For the same molecule, the “Selectivity hEP2/hDP” value in assay [3] is “xxx (xxx > 100)”.

As for `COc1ccc2c(c1)cc(C(=O)N1CC(Cn3cc4c(C)c(C(=O)NCC(F)(F)F)ccc4n3)C1)n2C` [Example 168, 2-({1-[(5-methoxy-1-methyl-1H-indol-2-yl)carbonyl]azetidin-3-yl}methyl)-4-methyl-N-(2,2,2-trifluoroethyl)-2H-indazol-5-carboxamide], the IC50 in assay [1] was found to be 29.3 nM. In assay [2], the “Selectivity hEP2/hEP4” value was “xxx (xxx > 100)”. The “Selectivity hEP2/hDP” value in assay [3] was “xxx (xxx > 100)”.

As to `COCCNC(=O)c1cc2cn(CC3CN(C(=O)c4ccc(OC(F)(F)F)cc4)C3)nc2cc1C` [Example 181, N-(2-methoxyethyl)-6-methyl-2-({1-[4-(trifluoromethoxy)benzoyl]azetidin-3-yl}methyl)-2H-indazol-5-carboxamide], the IC50 in assay [1] is 35.2 nM. In addition, the “Selectivity hEP2/hEP4” value in assay [2] is recorded as “xxx (xxx > 100)”. Moreover, the “Selectivity hEP2/hDP” value in assay [3] is reported as “xxx (xxx > 100)”.

For `COCCNC(=O)c1ccc2nn(CC3CCN(C(=O)c4ccc(Oc5ncccn5)cc4)CC3)cc2c1C` [Example 342, N-(2-methoxyethyl)-4-methyl-2-({1-[4-(pyrimidin-2-yloxy)benzoyl]piperidin-4-yl}methyl)-2H-indazol-5-carboxamide], the IC50 in assay [1] came to 103 nM. In addition, in assay [2], the “Selectivity hEP2/hEP4” value is reported as “xxx (xxx > 100)”. In addition, in assay [3], the “Selectivity hEP2/hDP” value is on record as “xxx (xxx > 100)”.

In the case of `Cc1c(C(=O)NCC(F)(F)F)ccc2nn(CC3CN(C(=O)c4ccc(C(F)(F)F)cc4F)C3)cc12` [Example 131, 2-({1-[2-fluoro-4-(trifluoromethyl)benzoyl]azetidin-3-yl}methyl)-4-methyl-N-(2,2,2-trifluoroethyl)-2H-indazol-5-carboxamide], the IC50 in assay [1] amounted to 228 nM. Further, the “Selectivity hEP2/hEP4” value in assay [2] is reported as “xx (xx: 10-100)”. Also, in assay [3], the “Selectivity hEP2/hDP” value is on record as “xx (xx: 10-100)”.

Consider `COCCNC(=O)c1ccc2nn(CC3CCN(C(=O)c4cccc(C(F)(F)F)c4)CC3)cc2c1C` [Example 26, N-(2-methoxyethyl)-4-methyl-2-({1-[3-(trifluoromethyl)-benzoyl]piperidin-4-yl}methyl)-2H-indazol-5-carboxamide], for which, in assay [1], the IC50 was 24.2 nM. Further, the “Selectivity hEP2/hEP4” value in assay [2] was “xxx (xxx > 100)”. Moreover, the “Selectivity hEP2/hDP” value in assay [3] was “xxx (xxx > 100)”.

As for `COCCNC(=O)c1ccc2nn(CC3CN(C(=O)c4ccc(Oc5ccc(Cl)cc5)cc4)C3)cc2c1C` [Example 166, 2-({1-[4-(4-chlorophenoxy)benzoyl]azetidin-3-yl}methyl)-N-(2-methoxyethyl)-4-methyl-2H-indazol-5-carboxamide], the IC50 in assay [1] turned out to be 2.87 nM. For the same molecule, the “Selectivity hEP2/hEP4” value in assay [2] is recorded as “xxx (xxx > 100)”. Besides, the “Selectivity hEP2/hDP” value in assay [3] is reported as “xxx (xxx > 100)”.

On to `Cc1c(C(=O)NCC(C)OCC2CC2)ccc2nn(CC3CCN(C(=O)c4ccc(-c5ccc(F)cc5)cc4)CC3)cc12` (racemic) [Example 105, (+/−)-N-[2-(cyclo-propylmethoxy)-propyl]-2-({l-[(4′-fluorobiphenyl-4-yl)carbonyl]-piperidin-4-yl}-methyl)-4-methyl-2H-indazol-5-carboxamide], for which, in assay [1], the IC50 worked out at 285 nM. Besides, in assay [2], the “Selectivity hEP2/hEP4” value was “xx (xx: 10-100)”. In assay [3], the “Selectivity hEP2/hDP” value is “xx (xx: 10-100)”.

For the molecule `Cc1c(C(=O)NCCSC(F)(F)F)ccc2nn(CC3CN(C(=O)c4ccc(S(F)(F)(F)(F)F)cc4)C3)cc12` [Example 135, 4-methyl-2-({1-[4-(pentafluoro-λ^6-sulphanyl)benzoyl]azetidin-3-yl}methyl)-N-{2-[(trifluoromethyl)sulphanyl]ethyl}-2H-indazol-5-carboxamide], in assay [1], the IC50 amounted to 19.5 nM. In addition, the “Selectivity hEP2/hEP4” value in assay [2] was “xxx (xxx > 100)”. In addition, in assay [3], the “Selectivity hEP2/hDP” value is on record as “xxx (xxx > 100)”.

Regarding `CCc1c(C(=O)NCCOC)ccc2nn(CC3CCN(C(=O)c4ccc(OC(F)(F)F)cc4)CC3)cc12` [Example 213, 4-Ethyl-N-(2-methoxyethyl)-2-({1-[4-(trifluoromethoxy)benzoyl]piperidin-4-yl}methyl)-2H-indazol-5-carboxamide], the IC50 in assay [1] worked out at 82.4 nM. In assay [2], the “Selectivity hEP2/hEP4” value is listed as “xxx (xxx > 100)”. Besides, in assay [3], the “Selectivity hEP2/hDP” value was “xxx (xxx > 100)”.

For the molecule `COCCNC(=O)c1ccc2nn(CC3CCN(C(=O)c4ccc(C#N)cc4F)CC3)cc2c1C` [Example 1, 2-{[1-(4-cyano-2-fluorobenzoyl)piperidin-4-yl]methyl}-N-(2-methoxyethyl)-4-methyl-2H-indazol-5-carboxamide], in assay [1], the IC50 was 103 nM. In assay [2], the “Selectivity hEP2/hEP4” value was “xxx (xxx > 100)”. Also, the “Selectivity hEP2/hDP” value in assay [3] was “xxx (xxx > 100)”.

A word on the IC50: it is the concentration that gives 50% inhibition.
